Experiment [1] concerns E0771 mammary tumors. In words: Orthotopic E0771 mammary tumors, tumor growth after localized irradiation with or without antibiotics/antifungals. It is filed as in vivo, mice. The note with it: for tumor response to RT: agent for one week prior to localized kV irradiation (16 Gy), FIG. 26, 27A.
Experimental: Orthotopic E0771 mammary tumors were grown to a median diameter of 1.0 cm and mice were then started with either antibiotics (Abx) or antifungals (AF) for one week prior to being treated with localized kV irradiation (16 Gy). Total tumor burden/animal assessed every 3 days until endpoint. […] Antibiotics (Abx) were ampicillin, imipenem, cilastin and vancomycin. Fluconazole was the antifungals (AF) used for these experiments. Significance was determined by two-way ANOVA. Kaplan-Meier survival curves are also shown with significance determined by the Log-Rank test (FIG. 26G, FIG. 26H). One of five experiments is shown. […] For all figures significance is shown as *p<0.05, **p<0.01, ***p<0.001.
Orthotopic E0771 mammary tumors were grown as described above and then treated with either the antifungal (5-fluorocytosine) one week prior to treatment with localized kV irradiation (16 Gy) (n=8 per group, one of two repeats shown) (FIG. 27A).
For experiments assessing antifungal treatment and the efficacy of radiation therapy (FIGS. 2 and 13), mice bearing syngeneic murine tumors (derived from the E0771 cell line) were treated for one week with fluconazole by putting fluconazole in their drinking water. When tumors reached approximately 1 cm in size they were irradiated with 16 Gray of focal radiation from a Cesium-137 source. The tumors were then followed for tumor growth until they reached approximately 2 cm in size at which time they were harvested for analysis.
For experiments assessing the anti-fungal combination treatment (FIG. 14), in addition to just fluconazole the mice were treated with a cocktail of antifungals (Fluconazole, 5-Fluorocytosine and Amphotericin B) for one week prior to RT.
The subject of experiment [2] is CD4+ T cells. In words: Cytokine expression of CD4+ T cells from tumors. It is filed as in vivo, mice. The note with it: FIG. 4.
Text: Tumors were harvested from mice at various time points and analyzed by flow cytometry (FACS) (FIG. 22A), immunohistochemistry (IHC) (FIG. 22B) and qPCR (FIG. 22C). FIG. 22A) For FACS, tumors were enzymatically dissociated with and labeled with fluorescently tagged antibodies and then placed on a flow cytometer. FIG. 22B) For IHC, tumor fragments were fixed in formalin and embedded in paraffin. 5 micron sections were then cut and stained with various antibodies and developed with DAB prior to whole-slide scanning on the Aperio system (Leica Biosystems). FIG. 22C) qPCR was performed on flow sorted immune cells (e.g. CD4+ T cells or macrophages) and then subjected to qPCR with a panel of primers.
Tumors are harvested and evaluated at three endpoints: 1, 2, 4 and 10 days following RT. […]
The test system of experiment [3] is tumors. Nature of the experiment: Tumor immunohistochemistry: proliferation, cell death, vessels. It is filed as in vivo, mice. The conditions noted are these: FIG. 5. The procedure: Orthotopic E0771 mammary tumors were grown to a median diameter of 1.0 cm and mice were then started with either antibiotics (Abx) or antifungals (AF) for one week prior to being treated with localized kV irradiation (16 Gy). Total tumor burden/animal assessed every 3 days until endpoint. […] Antibiotics (Abx) were ampicillin, imipenem, cilastin and vancomycin. Fluconazole was the antifungals (AF) used for these experiments. Significance was determined by two-way ANOVA. Kaplan-Meier survival curves are also shown with significance determined by the Log-Rank test (FIG. 26G, FIG. 26H). One of five experiments is shown. Tumors from mice were harvested at one week following RT and stained for bromodeoxyuridine (BrdU) and cleaved caspase 3 (CC3) to assess for proliferation and cell death respectively (FIG. 26I, FIG. 26J). Slides were scanned using the Aperio slide scanner and analyzed using the ScanScope nuclear algorithm included in the Aperio software package. Significance was determined by two-way ANOVA. For all figures significance is shown as *p<0.05, **p<0.01, ***p<0.001.

Experiment [4] concerns intratumoral leukocytes. The note with it: FIG. 3; with RT; fluconazole added to RT and antibiotics.
Experimental: Irradiated E0771 mammary tumors were harvested from mice at one week following RT. Tumors were dissociated using the tumor dissociation kit (Miltenyi Biotech) and CD45+ cells were then isolated with CD45+ MacsBeads. The resulting CD45+ cells were then stained with fluorescent antibodies and run on a flow cytometer. Total leukocytes (CD45+ Cells), CD4+ T cells, CD8+ T cells, M1 macrophages (CD11b+Ly6C+) and M1 macrophages (CD11b+F4/80′) were assessed following antibiotic (FIG. 28A-FIG. 28D) and antifungal (FIG. 28E-FIG. 28H) treatment. Antibiotics (Abx) were ampicillin, imipenem, cilastin and vancomycin. Fluconazole was the antifungal (AF) used for these experiments. n=5-7 per group and represent one of five independent experiments.

`Nc1nc(=O)[nH]cc1F` [5-fluorocytosine]: the “tumor response to RT” value in experiment [1] was “similarly enhance the efficacy of RT”.
As to `OC(Cn1cncn1)(Cn1cncn1)c1ccc(F)cc1F` [Fluconazole], the “efficacy of RT” value in experiment [1] (FIG. 12A, RT 16 Gy) is “increases the efficacy of RT”. For the same compound, the “tumor response to RT” value in experiment [1] is “enhance”. In experiment [2], the “IFN-γ expression by CD4+ T cells” value was “more” and the “IL-4 expression by CD4+ T cells” value is given as “less”. In experiment [3], the tumor apoptosis entry is reported as “opposite” and the tumor cell division result is reported as “opposite”. In addition, in experiment [4], the “CD4+ T cells” value is “reduces the increase in CD4+ T cell” and the “CD8+ T cells” value is recorded as “prevents the reduction of CD8+ T cells”.

These data come from US10772903B2, “Targeting fungi in combination with cancer therapy” (Cedars-Sinai Medical Center, priority 2016, dated 2020).
